Source: ChEMBL document CHEMBL1201862, “PubChem BioAssay data set” (2004)
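The compound was tested at five concentrations on cells cultured in 96-well plates, with a 48-hour exposure period. GI50 is the concentration that inhibits growth by half.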 Active and inactive are the calls of the source. No stated cut-off is given here; in the data, active = GI50 up to about 1.1 µM and inactive = higher.

How the values were obtained:
Experiment in all cases: inhibition of tumour cell growth, NCI panel, 48 h
[1] = tested on: UACC-257
[2] = tested on: LOX IMVI
[3] = tested on: MOLT-4
[4] = tested on: IGROV-1
[5] = tested on: Malme-3M
[6] = tested on: KM12
[7] = tested on: SNB-75
[8] = tested on: MDA-N
[9] = tested on: PC-3
[10] = tested on: SN12C
[11] = tested on: NCI-H460
[12] = tested on: SK-OV-3
[13] = tested on: TK-10
[14] = tested on: EKVX
[15] = tested on: SNB-19
[16] = tested on: 786-0
[17] = tested on: ACHN
[18] = tested on: Hs-578T
[19] = tested on: M14
[20] = tested on: MCF7
[21] = tested on: UO-31
[22] = tested on: HOP-92
[23] = tested on: RPMI-8226
[24] = tested on: COLO 205
[25] = tested on: NCI/ADR-RES
[26] = tested on: HT-29
[27] = tested on: NCI-H226
[28] = tested on: SW-620
[29] = tested on: A498
[30] = tested on: SK-MEL-28
[31] = tested on: K562
[32] = tested on: HCT-15
[33] = tested on: SR
[34] = tested on: MDA-MB-231
[35] = tested on: HCC 2998
[36] = tested on: MDA-MB-435
[37] = tested on: SF-268
[38] = tested on: HOP-62
[39] = tested on: A549
[40] = tested on: SK-MEL-5
[41] = tested on: OVCAR-4
[42] = tested on: CCRF-CEM
[43] = tested on: SF-295
[44] = tested on: BT-549
[45] = tested on: NCI-H522
[46] = tested on: HCT-116
[47] = tested on: OVCAR-3
[48] = tested on: OVCAR-5
[49] = tested on: OVCAR-8
[50] = tested on: CAKI-1
[51] = tested on: UACC-62
[52] = tested on: SF-539
[53] = tested on: NCI-H23
[54] = tested on: DU-145
[55] = tested on: RXF 393
[56] = tested on: U-251
[57] = tested on: HL-60
[58] = tested on: SK-MEL-2

N#Cc1c(O)c(C=O)c(=O)n2c1[nH]c1ccccc12
GI50 [1]: > 100 µM (inactive) | GI50 [2]: > 100 µM (inactive) | GI50 [3]: > 100 µM (inactive) | GI50 [4]: > 100 µM (inactive) | GI50 [5]: > 100 µM (inactive) | GI50 [6]: > 100 µM (inactive) | GI50 [7]: > 100 µM (inactive) | GI50 [8]: > 100 µM (inactive) | GI50 [9]: > 100 µM (inactive) | GI50 [10]: > 100 µM (inactive) | GI50 [11]: > 100 µM (inactive) | GI50 [12]: > 100 µM (inactive) | GI50 [13]: > 100 µM (inactive) | GI50 [14]: > 100 µM (inactive) | GI50 [15]: > 100 µM (inactive) | GI50 [16]: > 100 µM (inactive) | GI50 [17]: > 100 µM (inactive) | GI50 [18]: > 100 µM (inactive) | GI50 [19]: > 100 µM (inactive) | GI50 [20]: 44.3 µM (inactive) | GI50 [21]: > 100 µM (inactive) | GI50 [22]: > 100 µM (inactive) | GI50 [23]: > 100 µM (inactive) | GI50 [24]: > 100 µM (inactive) | GI50 [25]: > 100 µM (inactive) | GI50 [26]: > 100 µM (inactive) | GI50 [27]: > 100 µM (inactive) | GI50 [28]: > 100 µM (inactive) | GI50 [29]: > 100 µM (inactive) | GI50 [30]: > 100 µM (inactive) | GI50 [31]: > 100 µM (inactive) | GI50 [32]: > 100 µM | GI50 [33]: 61.4 µM (inactive) | GI50 [34]: > 100 µM (inactive) | GI50 [35]: > 100 µM (inactive) | GI50 [36]: > 100 µM (inactive) | GI50 [37]: > 100 µM (inactive) | GI50 [38]: > 100 µM (inactive) | GI50 [39]: > 100 µM (inactive) | GI50 [40]: > 100 µM (inactive) | GI50 [41]: > 100 µM (inactive) | GI50 [42]: > 100 µM (inactive) | GI50 [43]: > 100 µM (inactive) | GI50 [44]: > 100 µM (inactive) | GI50 [45]: > 100 µM (inactive) | GI50 [46]: > 100 µM (inactive) | GI50 [47]: > 100 µM (inactive) | GI50 [48]: > 100 µM (inactive) | GI50 [49]: > 100 µM (inactive) | GI50 [50]: > 100 µM (inactive) | GI50 [51]: > 100 µM (inactive) | GI50 [52]: > 100 µM (inactive) | GI50 [53]: > 100 µM (inactive) | GI50 [54]: > 100 µM (inactive) | GI50 [55]: > 100 µM (inactive) | GI50 [56]: > 100 µM (inactive)

Cc1[nH]c(-c2ccccc2)c(-c2ccc(Cl)cc2)c1C(=O)ONC(=O)c1ccccc1
GI50 [1]: 6.82 µM (inactive) | GI50 [2]: 1.39 µM (inactive) | GI50 [3]: 2.69 µM (inactive) | GI50 [4]: 1.16 µM (inactive) | GI50 [5]: 10.2 µM (inactive) | GI50 [6]: 7.24 µM (inactive) | GI50 [7]: 3.56 µM (inactive) | GI50 [8]: 2 µM (inactive) | GI50 [9]: 4.94 µM (inactive) | GI50 [10]: 2.25 µM (inactive) | GI50 [11]: 2.11 µM (inactive) | GI50 [12]: 10.5 µM (inactive) | GI50 [13]: 2.81 µM (inactive) | GI50 [14]: 3.07 µM (inactive) | GI50 [15]: 4.86 µM (inactive) | GI50 [16]: 1.9 µM (inactive) | GI50 [17]: 1.77 µM (inactive) | GI50 [18]: 2.26 µM (inactive) | GI50 [19]: 4.55 µM (inactive) | GI50 [20]: 11.9 µM (inactive) | GI50 [57]: 1.5 µM (inactive) | GI50 [21]: 0.113 µM (active) | GI50 [22]: 1.77 µM (inactive) | GI50 [23]: 3.02 µM (inactive) | GI50 [24]: 5.93 µM (inactive) | GI50 [25]: 3.23 µM (inactive) | GI50 [26]: 4.6 µM (inactive) | GI50 [27]: 3.61 µM (inactive) | GI50 [28]: 7.26 µM (inactive) | GI50 [29]: 6.24 µM (inactive) | GI50 [30]: 8.38 µM (inactive) | GI50 [31]: 2.65 µM (inactive) | GI50 [32]: 6.17 µM | GI50 [34]: 3.64 µM (inactive) | GI50 [35]: 3.32 µM (inactive) | GI50 [36]: 2.47 µM (inactive) | GI50 [37]: 2.34 µM (inactive) | GI50 [38]: 2.07 µM (inactive) | GI50 [39]: 2.19 µM (inactive) | GI50 [40]: 3.41 µM (inactive) | GI50 [41]: 2.62 µM (inactive) | GI50 [42]: 1.75 µM (inactive) | GI50 [58]: 2.9 µM (inactive) | GI50 [43]: 2.1 µM (inactive) | GI50 [44]: 2.56 µM (inactive) | GI50 [45]: 2.1 µM (inactive) | GI50 [46]: 2.11 µM (inactive) | GI50 [47]: 3.2 µM (inactive) | GI50 [48]: 5.07 µM (inactive) | GI50 [49]: 4 µM (inactive) | GI50 [50]: 2.44 µM (inactive) | GI50 [51]: 10.1 µM (inactive) | GI50 [52]: 2.22 µM (inactive) | GI50 [53]: 4.02 µM (inactive) | GI50 [54]: 1.58 µM (inactive) | GI50 [55]: 2.12 µM (inactive) | GI50 [56]: 1.78 µM (inactive)
